The values below come from patent US6358884B1, “Bacteriocidal and fungicidal solution containing inorganic silver complex salt and process for producing the same” (Sumitomo Metal Mining Co., Ltd., priority 1997, dated 2002).

Experiment [1] relates to Staphylococcus aureus. In words: Bacteriocidal test for Staphylococcus aureus (sprayed filter paper, plate culture). The class given is cell-based. The method, then: Using the same aqueous solution containing silver as the chloro complex salt as in Example 1 above a bacteriocidal effect to Staphylococcus aureus was evaluated. As a comparison, a bacteriocidal test was conducted in the same manner by using a sterilizing ethanol as a bacteriocidal agent instead of the aqueous solution described above. The evaluation method is as shown below.
Each of the test specimen solutions was sprayed each about by 1 g as the bacteriocidal agent do so as to be substantially uniform by using a spray on 5A filter paper of 11 cm diameter and then each filter paper was left in a room with no air conditioning facility at a room temperature for 24 hours. Subsequently, a bacteria solution adjusted to a cell number of 7×10^4 N/ml by a preliminary test was dropped each by 1 ml by using a micro-pipette to each filter paper and further left in a room with no air conditioning facility at a room temperature for 24 hours.
Then, each filter paper was transferred to a sterilized cup, and vigorously shaken for 2 min by a shaker with addition of 100 ml of water. Subsequently, 1 ml of a test solution was sampled from each of sterilized cups, subjected to plate culture at 36° C. for 72 hours each with addition of ordinary agar culture medium, and the number of colonies formed was counted.
Further as a blank test, 1 ml of a solution diluted by 100 times from the bacterial solution described above (the number of cells about 7×10^4 N/ml) was sampled to a Shale without using the bacteriocidal agent, cultivated in the same manner as described above with addition of a usual agar medium, and the number of formed colonies was counted.

Experiment [2] concerns fungi. The following applies: according to "Metal", vol. 65 (1995), No. 11; cited from earlier work.
Experiment [3] concerns bacteria. Particulars: according to "Metal", vol. 65 (1995), No. 11; cited from earlier work.

In the case of `CCO` [Sterilizing ethanol, ethanol], the “Number of cells in Shale” value in experiment [1] (about 1 g sprayed on filter paper, 1 ml bacteria solution 7×10^4 N/ml, 24 h, plate culture 36° C. 72 hours) is 507. In experiment [1] (cultivation time of 48 hours), the “colonies in the Shale” value is on record as “colonies were already formed”. In experiment [1] (per filter paper (1 ml of bacterial solution), plate culture 36° C. 72 hours), the “Number of cells per filter paper” value is on record as 5.1 × 10^4. Besides, the “Increase/decrease ratio for Number of cell” value in experiment [1] (ratio to the number of cells dropped to filter paper (7×10^4 N/ml), 72 hours cultivation) came out at 72.9%.
Turning to silver ions, the “concentration showing slow releasing fungicidal effect” value in experiment [2] is no less than 0.5 mg/L. The “concentration showing slow releasing bacteriocidal effect” value in experiment [3] was no less than 0.05 mg/L.
